Where two headings read alike, the source gives them in different places.
What was measured:
[1] = system: scopolamine-induced swimming hyperactivity; assay: scopolamine induced swimming test (SIS), reversal of scopolamine-induced swimming hyperactivity; type: in vivo, laboratory rats (b65); mice (b66); details: for inhibition in vivo at 0.32 mg/kg / inhibition in vivo at 3.2 mg/kg / inhibition in vivo at 32 mg/kg: Rattus norvegicus; for inhibition in vivo at 0.32 mg/kg: read-out: Percent Reversal Swimming Hyperactivity, Dose 0.32 mg/kg, SC; for inhibition in vivo at 3.2 mg/kg: read-out: Percent Reversal Swimming Hyperactivity, Dose 3.2 mg/kg, SC; for inhibition in vivo at 32 mg/kg: read-out: Percent Reversal Swimming Hyperactivity, Dose 32 mg/kg, SC; for reversal of scopolamine swimming hyperactivity: scopolamine-treated rats
Procedure: The biological activity of compounds of the present invention was evaluated using the "scopolamine induced swimming test" (SIS). This screen evaluated the ability of the test compounds to reverse the hyperactive swimming behavior of laboratory rats given scopolamine. in this test, untreated rats will generally swim between 20 to 30 meters during a five-minute test period. […] We have discovered unexpectedly that α2-adrenergic antagonists including the compounds in this application also reverse this swimming hyperactivity, perhaps through indirect stimulation of the cholinergic system.
SIS values are reported as the percent reversal of scopolamine, and are determined as follows: [formula] where U, SDT, and ST represent, respectively, the mean activity level in meters swum of untreated, scopolamine-and-drug-treated, and scopolamine-treated mice.

[2] = biological target: α1-adrenergic binding site; assay: binding at the α1-adrenergic binding site; details: read-out: α1 IC50 (Nanomolar)
Procedure: (§1) The binding of representative compounds of this invention at the α1-adrenergic binding site was measured using the protocol described by Hornung, R., et al, Archiv. Pharm., 308:223 (1979). Similarly, the binding at the α2:adrenergic binding site was measured using the method of Rouot, B. R., et al, Life Sci., 25: 769 (1979). The data are presented in Table 2 and illustrate the α2 selectivity of the compounds.

[3] = system: α2-adrenergic binding site; assay: binding at the α2-adrenergic binding site; details: for α1/α2: ratio of IC50 α1/α2; for IC50: read-out: α2 IC50 (Nanomolar)
Procedure: The α2 binding sites are presynaptic and are involved in the control of release of norepinephrine. A compound which acts selectively as an α2-adrenergic antagonist acts to increase noradrenergic activity. Such increases in noradrenergic activity are related to improved cognitive function in animals.
as §1

[4] = system: spatial working memory in hippocamally-deficient mice; assay: Mouse Water Maze (MWM) test; type: in vivo, laboratory mice; details: read-out: minimal effective dose (MED)
Procedure: This compound was tested in the Mouse Water Maze (MWM) test which is a direct test of spatial cognitive skill in laboratory mice. This test, which is described in Morris, R., J. Neurosci. Meth., 11: 47-60 (1984), measures the effect of a test drug on spatial working memory in hippocamally-deficient mice.

[5] = 0.32 mg/kg, SC, vs scopolamine 0.1 mg/kg, five-minute test
[6] = 3.2 mg/kg, SC, vs scopolamine 0.1 mg/kg, five-minute test
[7] = 32 mg/kg, SC, vs scopolamine 0.1 mg/kg, five-minute test

| Compound | inhibition in vivo at 0.32 mg/kg [1, 5] [%] | inhibition in vivo at 3.2 mg/kg [1, 6] [%] | inhibition in vivo at 32 mg/kg [1, 7] [%] | further results |
| --- | --- | --- | --- | --- |
| Nc1ccccc1Nc1ccncc1 [Compound 9, N-4-Pyridinyl-1,2-benzenediamine] | 15 | 18 | 72 |  |
| COC(=O)C1=CCCN(C)C1 [arecoline, reference compound] |  |  |  | reversal of scopolamine swimming hyperactivity [1]: can be reversed |
| CNC(=O)Oc1ccc2c(c1)[C@]1(C)CCN(C)[C@@H]1N2C [physostigmine, reference compound] |  |  |  | reversal of scopolamine swimming hyperactivity [1]: can be reversed |
| Clc1ccc(Nc2ccncc2)cc1Cl [Compound 14, N-(3,4-Dichlorophenyl)-4-pyridinamine] | 31 | 37 | 64 | IC50 [2]: > 1000 nM; α1/α2 [3]: > 8.5; IC50 [3]: 118 nM |
| COC(=O)N(c1ccncc1)c1ccc(Cl)c(Cl)c1 [Compound 20, (3,4-Dichlorophenyl)-4-pyridinylcarbamic acid, methyl ester] |  |  |  | inhibition in vivo at 0.32 mg/kg ([1]; sc): 6%; inhibition in vivo at 3.2 mg/kg ([1]; sc): 0%; inhibition in vivo at 32 mg/kg ([1]; sc): 9% |
| FC(F)(F)c1cccc(Nc2ccncc2)c1 [Compound 5, N-[3-(Trifluoromethyl)phenyl]-4-pyridin-amine] | 0 | 0 | 57 |  |
| CN1[C@@H]2C[C@@H](OC(=O)[C@H](CO)c3ccccc3)C[C@H]1[C@@H]1O[C@@H]12 [scopolamine, reference compound] |  |  |  | increase of swimming distances above baseline values ([1]; scopolamine 0.1 mg/kg, five-minute test period, rats): 75-125% |
| Cc1ccc(Nc2ccncc2)c([N+](=O)[O-])c1 [Compound 16, N-(4-Methyl-2-nitrophenyl)-4-pyridinamine] | 0 | 3 | 14 |  |
| O=[N+]([O-])c1cccc(Nc2ccncc2)c1 [Compound 8, N-(3-Nitrophenyl)-4-pyridinamine] | 40 | 39 | 70 |  |
| COc1cccc(Nc2ccncc2)c1 [Compound 7, N-(3-Methoxyphenyl)-4-pyridinamine] | 23 | 62 | 31 |  |
| c1ccc(Nc2ccncc2)cc1 [Compound 1, N-Phenyl-4-pyridinamine] | 27 | 22 | 57 |  |
| CN(C)C(=O)Oc1cccc([N+](C)(C)C)c1 [neostigmine, reference compound] |  |  |  | reversal of scopolamine swimming hyperactivity [1]: does not reverse the effect of scopolamine |
| Nc1cccc(Nc2ccncc2)c1 [Compound 10, N-4-Pyridinyl-1,3-benzenediamine] | 47 | 0 | 41 |  |
| COC(=O)c1cccc(Nc2ccncc2)c1 [Compound 12, 3-(4-Pyridinylamino)benzoic acid, methyl ester] | 15 | 0 | 8 |  |
| Clc1ccc(Nc2ccncc2)c(Cl)c1 [Compound 13, N-(2,4-Dichlorophenyl)-4-pyridinamine] | 0 | 24 | 0 |  |
| CC(=O)N(c1ccncc1)c1ccc(Cl)c(Cl)c1 [Compound 18, N-(3,4-Dichlorophenyl)-N-4-pyridinylacet-amide] | 33 | 34 | 30 |  |
| C[N+]1(C)C2CC(OC(=O)C(CO)c3ccccc3)CC1C1OC12 (stereo not shown) [scopolamine methyl nitrate, reference compound] |  |  |  | behavioral changes ([1]; same conditions as scopolamine): does not produce any behavioral changes |
| COC(=O)N(c1ccncc1)c1ccc(C)cc1 [Compound 19, (4-Methylphenyl)-4-pyridinylcarbamic acid, methyl ester] |  |  |  | inhibition in vivo at 0.32 mg/kg ([1]; sc): 36%; inhibition in vivo at 3.2 mg/kg ([1]; sc): 20%; inhibition in vivo at 32 mg/kg ([1]; sc): 17% |
| CN(C)c1cccc(Nc2ccncc2)c1 [Compound 11, N,N-Dimethyl-N'-4-pyridinyl-1,3-benzene-diamine] | 15 | 4 | 61 |  |
| Cc1ccc(Nc2ccncc2)cc1 [Compound 3, N-(4-Methylphenyl)-4-pyridinamine] | 10 | 25 | 100 | IC50 [2]: 1600 nM; α1/α2 [3]: 43; IC50 [3]: 37 nM |
| Cc1cccc(Nc2ccncc2)c1 [Compound 2, N-(3-Methylphenyl)-4-pyridinamine] | 52 | 36 | 66 |  |
| FC(F)(F)c1ccc(Nc2ccncc2)cc1 [Compound 6, N-[4-(Trifluoromethyl)phenyl]-4-pyridin-amine] | 0 | 16 | 55 |  |
| Clc1cccc(Nc2ccncc2)c1 [Compound 4, N-(3-Chlorophenyl)-4-pyridinamine] | 0 | 27 | 75 | IC50 [2]: 7500 nM; selectivity for binding at the α2-adrenergic site ([3]; from data in Table 2): high degree of selectivity for binding at the α2-adrenergic site; α1/α2 [3]: 56; IC50 [3]: 133 nM; minimal effective dose [4]: 3.2 mg/kg |
| O=[N+]([O-])c1cc(Nc2ccncc2)ccc1Cl [Compound 15, N-(4-Chloro-3-nitrophenyl)-4-pyridinamine] | 26 | 0 | 0 |  |
| CC(=O)N(c1ccncc1)c1ccc(C)cc1 [Compound 17, N-(4-Methylphenyl)-N-4-pyridinylacetamide] | 35 | 56 | 21 | IC50 [2]: > 10000 nM; α1/α2 [3]: > 1.9; IC50 [3]: 5400 nM |

From patent US4855308A, “Method of treating senile cognitive decline with N'-substituted aminopyridine adrenergic agents” (Warner-Lambert Company, priority 1987, dated 1989)
